The results in this text go back to the OligoGym collection.

Oligonucleotides are written 5' to 3', each unit as a sugar letter and its base; * is a phosphorothioate linkage, no mark a phosphodiester; rarer units and linkages stand in square brackets, end groups in braces. Plain capitals give the bases only. Oligonucleotides are given in HELM: sugar(base)linkage, 5' to 3'; d 2'-deoxyribose, r ribose, m 2'-O-methylribose, p phosphate. ss, as = sense and antisense strand; d = 2'-deoxy (DNA); r = 2'-OH (RNA)
Further: test concentration or dose not given here.

In one data set the target is MRFAP1. The data set can be described thus: reporter assay of Huesken 2005. The settings on record: siRNA. In general terms: In a reporter assay the amount or activity of a reporter protein is the signal.
Substance “sense rArArArUrUrUrUrArUrGrUrGrCrUrArCrArCrUdTdT / antisense rArGrUrGrUrArGrCrArCrArUrArArArArUrUrUdAdA” displayed a normalised inhibition (eCFP-eYFP dual reporter) of 46.8%. The same measure, in the same setting: next, “sense rArArCrUrUrUrGrArUrUrUrGrGrArArArArUrGdTdT / antisense rCrArUrUrUrUrCrCrArArArUrCrArArArGrUrUdAdT”: 50.3%. “sense rArCrUrArUrCrUrArUrUrArUrArArCrCrUrGrCdTdT / antisense rGrCrArGrGrUrUrArUrArArUrArGrArUrArGrUdGdT”: the normalised inhibition (eCFP-eYFP dual reporter) came out at 42.2%.

For “sense rUrGrUrUrGrGrGrArCrArGrCrCrUrArArCrUrCdTdT / antisense rGrArGrUrUrArGrGrCrUrGrUrCrCrCrArArCrAdAdA”, the normalised inhibition (eCFP-eYFP dual reporter) is 85.6%.

As for “sense rCrUrGrArGrArCrUrUrGrGrArGrUrUrGrGrArGdTdT / antisense rCrUrCrCrArArCrUrCrCrArArGrUrCrUrCrArGdTdG”, the normalised inhibition (eCFP-eYFP dual reporter) is 81.5%. On to “sense rArCrCrUrGrGrGrArGrArArGrGrGrUrCrGrGrAdTdT / antisense rUrCrCrGrArCrCrCrUrUrCrUrCrCrCrArGrGrUdCdA”, for which the normalised inhibition (eCFP-eYFP dual reporter) stood at 77.6%. Same read-out and setting: the figure for “sense rGrArGrArArGrGrArArArArCrCrUrGrCrArArUdTdT / antisense rArUrUrGrCrArGrGrUrUrUrUrCrCrUrUrCrUrCdAdG” is 79.1%.

The target in the next data set is TMEM63B. The data set can be described thus: reporter assay of Huesken 2005. The settings on record: siRNA.
Substance “RNA1{r(C)p.r(C)p.r(U)p.r(G)p.r(A)p.r(A)p.r(G)p.r(G)p.r(A)p.r(C)p.r(U)p.r(U)p.r(C)p.r(A)p.r(A)p.r(C)p.r(G)p.r(U)p.r(G)p.d(T)p.d(T)}|RNA2{r(C)p.r(A)p.r(C)p.r(G)p.r(U)p.r(U)p.r(G)p.r(A)p.r(A)p.r(G)p.r(U)p.r(C)p.r(C)p.r(U)p.r(U)p.r(C)p.r(A)p.r(G)p.r(G)p.d(A)p.d(T)}$$$RNA1{StrandType:ss}|RNA2{StrandType:as}$” returned a normalised inhibition (eCFP-eYFP dual reporter) of 84.5%.

“RNA1{r(C)p.r(C)p.r(U)p.r(C)p.r(U)p.r(U)p.r(C)p.r(A)p.r(U)p.r(C)p.r(A)p.r(A)p.r(U)p.r(G)p.r(G)p.r(A)p.r(A)p.r(U)p.r(C)p.d(T)p.d(T)}|RNA2{r(G)p.r(A)p.r(U)p.r(U)p.r(C)p.r(C)p.r(A)p.r(U)p.r(U)p.r(G)p.r(A)p.r(U)p.r(G)p.r(A)p.r(A)p.r(G)p.r(A)p.r(G)p.r(G)p.d(G)p.d(T)}$$$RNA1{StrandType:ss}|RNA2{StrandType:as}$” returned a normalised inhibition (eCFP-eYFP dual reporter) of 73.9%. In turn, “RNA1{r(A)p.r(C)p.r(A)p.r(G)p.r(C)p.r(C)p.r(A)p.r(U)p.r(G)p.r(A)p.r(C)p.r(C)p.r(G)p.r(G)p.r(U)p.r(A)p.r(U)p.r(G)p.r(A)p.d(T)p.d(T)}|RNA2{r(U)p.r(C)p.r(A)p.r(U)p.r(A)p.r(C)p.r(C)p.r(G)p.r(G)p.r(U)p.r(C)p.r(A)p.r(U)p.r(G)p.r(G)p.r(C)p.r(U)p.r(G)p.r(U)p.d(C)p.d(C)}$$$RNA1{StrandType:ss}|RNA2{StrandType:as}$” came in with a normalised inhibition (eCFP-eYFP dual reporter) of 56.4%.

As to “RNA1{r(C)p.r(U)p.r(U)p.r(U)p.r(C)p.r(C)p.r(U)p.r(C)p.r(A)p.r(U)p.r(C)p.r(U)p.r(U)p.r(C)p.r(A)p.r(U)p.r(G)p.r(G)p.r(U)p.d(T)p.d(T)}|RNA2{r(A)p.r(C)p.r(C)p.r(A)p.r(U)p.r(G)p.r(A)p.r(A)p.r(G)p.r(A)p.r(U)p.r(G)p.r(A)p.r(G)p.r(G)p.r(A)p.r(A)p.r(A)p.r(G)p.d(T)p.d(G)}$$$RNA1{StrandType:ss}|RNA2{StrandType:as}$”, the normalised inhibition (eCFP-eYFP dual reporter) stood at 72.7%. Same read-out and setting: next, “RNA1{r(A)p.r(U)p.r(G)p.r(C)p.r(G)p.r(U)p.r(A)p.r(G)p.r(A)p.r(C)p.r(A)p.r(C)p.r(A)p.r(C)p.r(C)p.r(U)p.r(C)p.r(C)p.r(A)p.d(T)p.d(T)}|RNA2{r(U)p.r(G)p.r(G)p.r(A)p.r(G)p.r(G)p.r(U)p.r(G)p.r(U)p.r(G)p.r(U)p.r(C)p.r(U)p.r(A)p.r(C)p.r(G)p.r(C)p.r(A)p.r(U)p.d(G)p.d(C)}$$$RNA1{StrandType:ss}|RNA2{StrandType:as}$”: 76.8%. On the same count and under the same terms, next, “RNA1{r(A)p.r(A)p.r(G)p.r(A)p.r(U)p.r(C)p.r(A)p.r(A)p.r(G)p.r(A)p.r(A)p.r(G)p.r(C)p.r(A)p.r(U)p.r(U)p.r(U)p.r(U)p.r(G)p.d(T)p.d(T)}|RNA2{r(C)p.r(A)p.r(A)p.r(A)p.r(A)p.r(U)p.r(G)p.r(C)p.r(U)p.r(U)p.r(C)p.r(U)p.r(U)p.r(G)p.r(A)p.r(U)p.r(C)p.r(U)p.r(U)p.d(T)p.d(T)}$$$RNA1{StrandType:ss}|RNA2{StrandType:as}$”: 61.7%. Same read-out and setting: next, “RNA1{r(G)p.r(G)p.r(G)p.r(U)p.r(U)p.r(C)p.r(C)p.r(U)p.r(A)p.r(G)p.r(C)p.r(U)p.r(C)p.r(C)p.r(C)p.r(A)p.r(C)p.r(G)p.r(U)p.d(T)p.d(T)}|RNA2{r(A)p.r(C)p.r(G)p.r(U)p.r(G)p.r(G)p.r(G)p.r(A)p.r(G)p.r(C)p.r(U)p.r(A)p.r(G)p.r(G)p.r(A)p.r(A)p.r(C)p.r(C)p.r(C)p.d(C)p.d(G)}$$$RNA1{StrandType:ss}|RNA2{StrandType:as}$”: 57.9%. For “RNA1{r(A)p.r(U)p.r(U)p.r(U)p.r(U)p.r(G)p.r(A)p.r(G)p.r(G)p.r(A)p.r(A)p.r(G)p.r(C)p.r(C)p.r(U)p.r(A)p.r(C)p.r(C)p.r(C)p.d(T)p.d(T)}|RNA2{r(G)p.r(G)p.r(G)p.r(U)p.r(A)p.r(G)p.r(G)p.r(C)p.r(U)p.r(U)p.r(C)p.r(C)p.r(U)p.r(C)p.r(A)p.r(A)p.r(A)p.r(A)p.r(U)p.d(G)p.d(C)}$$$RNA1{StrandType:ss}|RNA2{StrandType:as}$”, the normalised inhibition (eCFP-eYFP dual reporter) amounted to 27.8%. Still for that read-out and setting: next, “RNA1{r(G)p.r(A)p.r(C)p.r(C)p.r(G)p.r(G)p.r(U)p.r(A)p.r(U)p.r(G)p.r(A)p.r(G)p.r(C)p.r(G)p.r(U)p.r(C)p.r(U)p.r(C)p.r(A)p.d(T)p.d(T)}|RNA2{r(U)p.r(G)p.r(A)p.r(G)p.r(A)p.r(C)p.r(G)p.r(C)p.r(U)p.r(C)p.r(A)p.r(U)p.r(A)p.r(C)p.r(C)p.r(G)p.r(G)p.r(U)p.r(C)p.d(A)p.d(T)}$$$RNA1{StrandType:ss}|RNA2{StrandType:as}$”: 99%; “RNA1{r(C)p.r(G)p.r(U)p.r(G)p.r(U)p.r(U)p.r(A)p.r(C)p.r(A)p.r(A)p.r(C)p.r(G)p.r(U)p.r(G)p.r(G)p.r(C)p.r(U)p.r(C)p.r(G)p.d(T)p.d(T)}|RNA2{r(C)p.r(G)p.r(A)p.r(G)p.r(C)p.r(C)p.r(A)p.r(C)p.r(G)p.r(U)p.r(U)p.r(G)p.r(U)p.r(A)p.r(A)p.r(C)p.r(A)p.r(C)p.r(G)p.d(G)p.d(G)}$$$RNA1{StrandType:ss}|RNA2{StrandType:as}$”: 91.6%. For “RNA1{r(U)p.r(C)p.r(A)p.r(U)p.r(C)p.r(A)p.r(U)p.r(C)p.r(A)p.r(C)p.r(C)p.r(A)p.r(C)p.r(C)p.r(A)p.r(U)p.r(G)p.r(G)p.r(A)p.d(T)p.d(T)}|RNA2{r(U)p.r(C)p.r(C)p.r(A)p.r(U)p.r(G)p.r(G)p.r(U)p.r(G)p.r(G)p.r(U)p.r(G)p.r(A)p.r(U)p.r(G)p.r(A)p.r(U)p.r(G)p.r(A)p.d(T)p.d(G)}$$$RNA1{StrandType:ss}|RNA2{StrandType:as}$”, the normalised inhibition (eCFP-eYFP dual reporter) was 79.2%. In the case of “RNA1{r(C)p.r(U)p.r(G)p.r(U)p.r(G)p.r(G)p.r(A)p.r(C)p.r(C)p.r(C)p.r(C)p.r(A)p.r(G)p.r(A)p.r(A)p.r(G)p.r(C)p.r(A)p.r(A)p.d(T)p.d(T)}|RNA2{r(U)p.r(U)p.r(G)p.r(C)p.r(U)p.r(U)p.r(C)p.r(U)p.r(G)p.r(G)p.r(G)p.r(G)p.r(U)p.r(C)p.r(C)p.r(A)p.r(C)p.r(A)p.r(G)p.d(T)p.d(A)}$$$RNA1{StrandType:ss}|RNA2{StrandType:as}$”, the normalised inhibition (eCFP-eYFP dual reporter) turned out to be 75.4%. The same measure, in the same setting: next, “RNA1{r(C)p.r(U)p.r(G)p.r(C)p.r(C)p.r(G)p.r(G)p.r(C)p.r(C)p.r(A)p.r(A)p.r(G)p.r(C)p.r(U)p.r(G)p.r(G)p.r(A)p.r(C)p.r(A)p.d(T)p.d(T)}|RNA2{r(U)p.r(G)p.r(U)p.r(C)p.r(C)p.r(A)p.r(G)p.r(C)p.r(U)p.r(U)p.r(G)p.r(G)p.r(C)p.r(C)p.r(G)p.r(G)p.r(C)p.r(A)p.r(G)p.d(G)p.d(T)}$$$RNA1{StrandType:ss}|RNA2{StrandType:as}$”: 65.2%; “RNA1{r(G)p.r(C)p.r(U)p.r(G)p.r(C)p.r(U)p.r(G)p.r(A)p.r(A)p.r(G)p.r(C)p.r(A)p.r(C)p.r(C)p.r(U)p.r(G)p.r(G)p.r(U)p.r(A)p.d(T)p.d(T)}|RNA2{r(U)p.r(A)p.r(C)p.r(C)p.r(A)p.r(G)p.r(G)p.r(U)p.r(G)p.r(C)p.r(U)p.r(U)p.r(C)p.r(A)p.r(G)p.r(C)p.r(A)p.r(G)p.r(C)p.d(A)p.d(T)}$$$RNA1{StrandType:ss}|RNA2{StrandType:as}$”: 82.4%; “RNA1{r(A)p.r(C)p.r(C)p.r(C)p.r(U)p.r(G)p.r(C)p.r(U)p.r(G)p.r(C)p.r(U)p.r(G)p.r(U)p.r(G)p.r(G)p.r(U)p.r(G)p.r(C)p.r(U)p.d(T)p.d(T)}|RNA2{r(A)p.r(G)p.r(C)p.r(A)p.r(C)p.r(C)p.r(A)p.r(C)p.r(A)p.r(G)p.r(C)p.r(A)p.r(G)p.r(C)p.r(A)p.r(G)p.r(G)p.r(G)p.r(U)p.d(G)p.d(G)}$$$RNA1{StrandType:ss}|RNA2{StrandType:as}$”: 58.5%. Turning to “RNA1{r(A)p.r(U)p.r(C)p.r(C)p.r(U)p.r(C)p.r(A)p.r(U)p.r(C)p.r(C)p.r(C)p.r(A)p.r(A)p.r(G)p.r(A)p.r(U)p.r(G)p.r(A)p.r(G)p.d(T)p.d(T)}|RNA2{r(C)p.r(U)p.r(C)p.r(A)p.r(U)p.r(C)p.r(U)p.r(U)p.r(G)p.r(G)p.r(G)p.r(A)p.r(U)p.r(G)p.r(A)p.r(G)p.r(G)p.r(A)p.r(U)p.d(G)p.d(A)}$$$RNA1{StrandType:ss}|RNA2{StrandType:as}$”, the normalised inhibition (eCFP-eYFP dual reporter) was found to be 53.8%. The substance “RNA1{r(U)p.r(G)p.r(C)p.r(C)p.r(A)p.r(C)p.r(C)p.r(C)p.r(G)p.r(A)p.r(C)p.r(G)p.r(C)p.r(C)p.r(C)p.r(U)p.r(C)p.r(A)p.r(C)p.d(T)p.d(T)}|RNA2{r(G)p.r(U)p.r(G)p.r(A)p.r(G)p.r(G)p.r(G)p.r(C)p.r(G)p.r(U)p.r(C)p.r(G)p.r(G)p.r(G)p.r(U)p.r(G)p.r(G)p.r(C)p.r(A)p.d(T)p.d(C)}$$$RNA1{StrandType:ss}|RNA2{StrandType:as}$” returned a normalised inhibition (eCFP-eYFP dual reporter) of 12.7%.
